According to paper PMC9267968, “Continued Structural Exploration of Sulfocoumarin as Selective Inhibitor of Tumor-Associated Human Carbonic Anhydrases IX and XII” (Molecules, 2022):
pKi: −log10 of the molar value. Several values for one entry are separate records, joined by “and”; a condition that tells them apart may be missing. Equal entries are not always repeated. Where two headings read alike, the source gives them in different places.

Assays:
hCA XII = biological target: T1, hCA XII (Homo sapiens, UniProt O43570); assay: biochemical; details: for Ki: 6 h incubation of enzyme and inhibitor, mean from 3 different assays, errors 5-10%, read-out: KI (nM) CA XII
T1 construct: made in house
Procedure: (§1) For this reason, we herein report a 6 h incubation time instead.
(§2) An Applied Photophysics stopped-flow instrument was used for assaying the CA catalyzed CO2 hydration activity. […] The uncatalyzed rates were determined in the same manner and subtracted from the total observed rates. Stock solutions of inhibitor (0.1 mM) were prepared in distilled–deionized water and dilutions up to 0.01 nM were done thereafter with the assay buffer. Inhibitor and enzyme solutions were preincubated together for 6h at room temperature prior to assay, in order to allow for the formation of the E-I complex. The inhibition constants were obtained by non-linear least-squares methods using PRISM 3 and the Cheng–Prusoff equation and represent the mean from at least three different determinations. […] All CA isoforms were recombinant ones obtained in-house.

hCA IX = biological target: T2, hCA IX (Homo sapiens, UniProt Q16790); assay: stopped-flow CO2 hydrase assay, hCA IX inhibition; format: biochemical; details: 6 h incubation of enzyme and inhibitor; mean from 3 different assays, errors 5-10%; read-out: KI (nM) CA IX
T2 construct: made in house
Procedure: as §1, §2

hCA I = biological target: T3, hCA I (Homo sapiens, UniProt P00915); assay: stopped-flow CO2 hydrase assay, hCA I inhibition; format: biochemical; details: 6 h incubation of enzyme and inhibitor; mean from 3 different assays, errors 5-10%; read-out: KI (nM) CA I
T3 construct: made in house
Procedure: as §1, §2

hCA II = biological target: T4, hCA II (Homo sapiens, UniProt P00918); assay: stopped-flow CO2 hydrase assay, hCA II inhibition; format: biochemical; details: 6 h incubation of enzyme and inhibitor; mean from 3 different assays, errors 5-10%; read-out: KI (nM) CA II
T4 construct: made in house
Procedure: as §1, §2

T1 sequence (O43570 25-354): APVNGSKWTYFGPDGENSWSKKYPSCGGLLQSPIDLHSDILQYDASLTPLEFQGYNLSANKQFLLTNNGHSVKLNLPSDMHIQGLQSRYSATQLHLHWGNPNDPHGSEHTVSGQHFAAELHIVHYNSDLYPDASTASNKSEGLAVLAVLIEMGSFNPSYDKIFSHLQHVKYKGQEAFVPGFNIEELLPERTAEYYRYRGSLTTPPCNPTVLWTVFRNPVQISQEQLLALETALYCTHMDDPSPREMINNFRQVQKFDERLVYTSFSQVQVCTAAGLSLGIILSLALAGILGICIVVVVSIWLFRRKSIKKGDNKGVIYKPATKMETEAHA
T3 sequence (P00915 whole entry): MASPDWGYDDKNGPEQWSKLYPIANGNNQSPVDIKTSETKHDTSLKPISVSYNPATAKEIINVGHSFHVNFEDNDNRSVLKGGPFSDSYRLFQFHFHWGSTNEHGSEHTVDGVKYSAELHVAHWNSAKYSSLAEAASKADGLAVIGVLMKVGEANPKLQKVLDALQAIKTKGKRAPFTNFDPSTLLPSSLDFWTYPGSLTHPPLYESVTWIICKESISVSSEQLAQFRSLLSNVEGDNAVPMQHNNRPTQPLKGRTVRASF

Structure (SMILES)	Ki (hCA XII) [nM]	Ki (hCA IX)	Ki (hCA I) [nM]	melting point [°C]	Ki (hCA II) [nM]	pKi (hCA XII)
CC1=CS(=O)(=O)Oc2cc(OCc3ccccc3)ccc21 [Compound 18, 7-(benzyloxy)-4-methylbenzo[e][1,2]oxathiine 2,2-dioxide]	8.6	49.8 nM	> 100000	174 to 175	> 100000	
CC1=CS(=O)(=O)Oc2cc(OCc3ccc(F)cc3)ccc21 [Compound 19, 7-((4-fluorobenzyl)oxy)-4-methylbenzo[e][1,2]oxathiine 2,2-dioxide]	41.7	14.3 nM	> 100000	195 to 198	> 100000	
CC1=CS(=O)(=O)Oc2cc(OCc3cccc(F)c3)ccc21 [Compound 20, 7-((3-fluorobenzyl)oxy)-4-methylbenzo[e][1,2]oxathiine 2,2-dioxide]	25.7	33.2 nM	> 100000	214 to 215	> 100000	
CC1=CS(=O)(=O)Oc2cc(OCc3ccc([N+](=O)[O-])cc3)ccc21 [Compound 21, 7-((4-nitrobenzyl)oxy)-4-methylbenzo[e][1,2]oxathiine 2,2-dioxide]	101	89.7 nM	> 100000	247 to 249	> 100000	
CC1=CS(=O)(=O)Oc2cc(OCc3cccc([N+](=O)[O-])c3)ccc21 [Compound 22, 7-((3-nitrobenzyl)oxy)-4-methylbenzo[e][1,2]oxathiine 2,2-dioxide]	136	61.4 nM	> 100000	239 to 241	> 100000	
COc1ccc2c(c1)OS(=O)(=O)c1ccccc1-2 [Compound 25, 3-methoxydibenzo[c,e][1,2]oxathiine 6,6-dioxide]	966	1290 nM	> 100000	180 to 183	> 100000	
O=S1(=O)Oc2cc(OCc3ccccc3)ccc2-c2ccccc21 [Compound 27, 3-(benzyloxy)dibenzo[c,e][1,2]oxathiine 6,6-dioxide]	911	681 nM	> 100000	232 to 235	> 100000	
O=S1(=O)Oc2cc(OCc3ccc(F)cc3)ccc2-c2ccccc21 [Compound 28, 3-((4-fluorobenzyl)oxy)dibenzo[c,e][1,2]oxathiine 6,6-dioxide]	654	755 nM	> 100000	268 to 269	> 100000	
O=S1(=O)Oc2cc(OCc3cccc(F)c3)ccc2-c2ccccc21 [Compound 29, 3-((3-fluorobenzyl)oxy)dibenzo[c,e][1,2]oxathiine 6,6-dioxide]	566	615 nM	> 100000	249 to 252	> 100000	
O=[N+]([O-])c1ccc(COc2ccc3c(c2)OS(=O)(=O)c2ccccc2-3)cc1 [Compound 30, 3-((4-nitrobenzyl)oxy)dibenzo[c,e][1,2]oxathiine 6,6-dioxide]	1060	965 nM	> 100000	264 to 266	> 100000	
O=[N+]([O-])c1cccc(COc2ccc3c(c2)OS(=O)(=O)c2ccccc2-3)c1 [Compound 31, 3-((3-nitrobenzyl)oxy)dibenzo[c,e][1,2]oxathiine 6,6-dioxide]	1370	898 nM	> 100000	248 to 251	> 100000	
CCOC(=O)C1=Cc2ccccc2OS1(=O)=O [Compound 34, ethyl benzo[e][1,2]oxathiine-3-carboxylate 2,2-dioxide]		1630 nM	> 100000	111 to 113	> 100000	5.59
CCOC(=O)C1=Cc2ccc(OC)cc2OS1(=O)=O [Compound 35, ethyl 7-methoxybenzo[e][1,2]oxathiine-3-carboxylate 2,2-dioxide]		1080 nM	> 100000	167 to 169	> 100000	5.82

Continued, values first:

Ki (hCA XII) [nM]	Ki (hCA IX)	Ki (hCA I) [nM]	melting point [°C]	Ki (hCA II) [nM]	pKi (hCA XII)	Structure (SMILES)
61.4	74.9 nM	> 100000	111 to 112			COc1ccc2c(c1)OS(=O)(=O)C=C2 [Compound 9, 7-Methoxybenzo[e][1,2]oxathiine 2,2-dioxide]
73.9	97.2 nM	> 100000	151 to 153	8810		COc1ccc2c(c1)OS(=O)(=O)C=C2C [Compound 10, 7-Methoxy-4-methylbenzo[e][1,2]oxathiine 2,2-dioxide]
42.5	55.8 nM	16500	157 to 159			O=S1(=O)C=Cc2ccc(O)cc2O1 [Compound 11, 7-Hydroxybenzo[e][1,2]oxathiine 2,2-dioxide]
55	81.7 nM	9960	172 to 175	3860		CC1=CS(=O)(=O)Oc2cc(O)ccc21 [Compound 12, 7-Hydroxy-4-methylbenzo[e][1,2]oxathiine 2,2-dioxide]
28.3	55.6 nM	> 100000	165 to 167			O=S1(=O)C=Cc2ccc(OCc3ccccc3)cc2O1 [Compound 13, 7-(Benzyloxy)benzo[e][1,2]oxathiine 2,2-dioxide]
19.2	22.9 nM	> 100000	197 to 199	> 100000		O=S1(=O)C=Cc2ccc(OCc3ccc(F)cc3)cc2O1 [Compound 14, 7-((4-Fluorobenzyl)oxy)benzo[e][1,2]oxathiine 2,2-dioxide]
46	28.4 nM	> 100000	180 to 183	> 100000		O=S1(=O)C=Cc2ccc(OCc3cccc(F)c3)cc2O1 [Compound 15, 7-((3-Fluorobenzyl)oxy)benzo[e][1,2]oxathiine 2,2-dioxide]
94.7	68.9 nM and 69.8 nM	> 100000	215 to 217	> 100000		O=[N+]([O-])c1ccc(COc2ccc3c(c2)OS(=O)(=O)C=C3)cc1 [Compound 16, 7-((4-Nitrobenzyl)oxy)benzo[e][1,2]oxathiine 2,2-dioxide]
77.5	40.2 nM	> 100000	200 to 202	> 100000		O=[N+]([O-])c1cccc(COc2ccc3c(c2)OS(=O)(=O)C=C3)c1 [Compound 17, 7-((3-nitrobenzyl)oxy)benzo[e][1,2]oxathiine 2,2-dioxide]
414	559 nM	42600	181 to 182	9000		O=S1(=O)Oc2cc(O)ccc2-c2ccccc21 [Compound 26, 3-Hydroxydibenzo[c,e][1,2]oxathiine 6,6-dioxide]
	500 nM	4620	105 to 107	996	6.25	O=C(O)C1=Cc2ccccc2OS1(=O)=O [Compound 36, benzo[e][1,2]oxathiine-3-carboxylic acid 2,2-dioxide]
	854 nM	7140	150 to 151	728	6.39	COc1ccc2c(c1)OS(=O)(=O)C(C(=O)O)=C2 [Compound 37, 7-methoxybenzo[e][1,2]oxathiine-3-carboxylic acid 2,2-dioxide]
